Results reported in patent US12544373B2, “Treatment of cancer, inflammatory diseases and autoimmune diseases” (Usher III Initiative, Inc., priority 2020, dated 2026).
Like-named read-outs stand apart in the source and are kept apart here.

Experiments:
Assay type in all cases: cell-based, human
[1] = test system: PAXF HUP-T3; assay: CellTiter-Blue 2D monolayer assay (Example 1), pancreas; conditions: for Test/Control (%): 72 h
Experimental: (§1) Compound 85 was assessed in 10 human tumor cell lines (see Table 3) for anti-cancer activity in vitro using a CellTiter-Blue® based 2D monolayer assay.
(§2) CellTiter-Blue® Cell Viability Assay: Tumor cells were grown at 37° C. in a humidified atmosphere with 5% CO2 in RPMI medium, supplemented with 10% (v/v) fetal calf serum and 50 μg/ml gentamicin (140 μl/well). Cultures were incubated at 37° C. and 5% CO2 in a humidified atmosphere. After 24 hours, 10 μl of Compound 85 was added, and left on the cells for another 72 hours (incubation period). Compound 85 was tested at 5 concentrations (0.003 μM, 0.03 μM, 0.3 μM, 3 μM, and 30 μM) and serially diluted in DMSO, mixed with cell culture medium, and added to the assay plates by using a Tecan Freedom EVO 200 robotic platform. The DMSO concentration was kept constant at 0.3% yip across the assay plate. Every 96 well plate included six DMSO-treated control wells and Compound 85-treated wells in duplicate at 5 concentrations. Viability of cells was quantified using the CellTiter-Blue® cell viability assay (Promega G8081). After incubation of cells, the CellTiter-Blue® reagent was brought to ambient temperature. Next, 20 μl of CellTiter-Blue® reagent were added to each well. After incubation tier up to 4 hours, fluorescence (FU) was measured using the EnSpire® multimode plate reader (Perkin Elmer) ([…]).
(§3) Data Evaluation: Sigmoidal concentration-response curves were fitted to the data points (test-versus-control; T/C values) obtained for each tumor model using 4 parameter non-linear curve fit (Charles River DRS Datawarehouse Software). Drug effects are expressed in terms of the percentage of the fluorescence signal, obtained by comparison of the mean signal in the treated wells with the mean signal of the untreated controls (T/C-value [%]) (Table 4). IC50 and IC70 values were reported as relative and absolute IC50 and IC70 values (Table 5). The absolute IC50 and IC70 values reflect the concentration of Compound 85 that achieves T/C=50% and T/C=30%, respectively. The relative IC50 value is the concentration of Compound 85 that gives a response half way between the top and bottom plateau of the sigmoidal concentration-response curve (inflection point of the curve).

[2] = test system: PAXF 1657; assay: as above; conditions: for Test/Control (%): 72 h
Experimental: as §1, §2, §3

[3] = test system: CNXF 498; assay: CellTiter-Blue Cell Viability Assay (Example 2), glioblastoma; conditions: for T/C %: 72 h
Source text: (§4) The CellTiter-Blue® Cell Viability Assay was used to assess the viability of cells from various cancer cell lines, in the presence or absence of Compound 85 (at different concentrations). This assay provides a homogeneous, fluorometric method for estimating the number of viable cells present in multi-well plates. Viable cells retain the ability to reduce resazurin to resorufin, which is highly fluorescent. […] The fluorescence produced is proportional to the number of viable cells. There is a linear relationship between cell number and fluorescence.
(§5) Cancer cells (see Table 6) were harvested from exponential phase cultures, counted and plated in 96 well flat-bottom microtiter plates, at a cell density 6,000-20,000 cells/well, depending on the cell line's growth rate. The culture medium was supplemented with 10% (v/v) foetal calf serum and 50 μg/mL gentamicin (140 μL/well). Cultures were incubated at 37° C. and 5% CO2 in a humidified atmosphere.
(§6) Compound 85 was serially diluted in DMSO, and five Compound 85 concentrations in half-log increments were used: 0.03 μM, 0.09 μM, 0.30 μM, 1.0 μM, and 3.0 μM. After 24 h, 10 μL of Compound 85 (dissolved in DMSO) or control (DMSO) medium were added, in duplicates, and left on the cells for another 72 h. Compound 85 solutions were added to the assay plates using a Tecan Freedom EVO 200 robotic platform. The DMSO concentration was kept constant at 0.3% v/v across the assay plate.
(§7) After incubation of up to 72 hours, fluorescence (FU) was measured using the EnSpire® multimode plate reader (Perkin Elmer) (excitation λ=570 nm, emission λ=600 nm).
(§8) Cancer cell lines used: Compound 85's anti-cancer effect was tested in 20 human cancer-cell lines representing nine cancer types (Table 6).
(§9) The percentage of viable cells in the presence of Compound 85 (Test condition, T), at different concentrations, are presented in Table 7 and expressed as a percentage of the number of viable cells in the presence of DMSO without Compound 85 (Control condition, C).
(§10) The relative IC50 is determined as the Compound 85 concentration giving a response halfway between the maximum cell viability signal (i.e., a 100% cell viability, no Compound 85 response) and the minimal viability signal (i.e. maximum cell viability inhibition achieved by Compound 85), in a sigmoidal concentration-effect curve.
(§11) The absolute IC50 is determined as the concentration that is associated with a T/C ratio of 50%.

[4] = test system: CNXF U-87 MG; assay: as above; conditions: for T/C %: 72 h
Source text: as §4, §5, §6, §7, §8, §9, §10, §11

[5] = test system: CXF LS 174T; assay: CellTiter-Blue Cell Viability Assay (Example 2), colon; conditions: for T/C %: 72 h
Source text: as §4, §5, §6, §7, §8, §9, §10, §11

[6] = test system: CXF HCC-2998; assay: as above; conditions: for T/C %: 72 h
Source text: as §4, §5, §6, §7, §8, §9, §10, §11

**Q.** For `CC(C)(O)Cn1nc(-c2ccccc2)c2c(Cl)c(-c3ccccc3)nnc21` [Compound 85], which “Rel. IC70” value [1] is on record?
**A.** 1.505 µM

**Q.** And the “Test/Control (%)” value ([1]; 0.003 μM)?
**A.** 100%

**Q.** What about the “Test/Control (%)” value ([1]; 0.03 μM) of the same compound?
**A.** 101%

**Q.** What about the “Test/Control (%)” value ([1]; 0.3 μM) of the same compound?
**A.** 79%

**Q.** What about the “Test/Control (%)” value ([1]; 3 μM) of the same compound?
**A.** 16%

**Q.** What about the “Test/Control (%)” value ([1]; 30 μM) of the same compound?
**A.** 6%

**Q.** And the “Abs. IC70” value ([1]; T/C=30%)?
**A.** 1.518 µM

**Q.** What about the IC50 ([1]; T/C=50%, read-out: Abs. IC50) of the same compound?
**A.** 794 nM

**Q.** And the “Bot. (%)” value ([1]; bottom plateau of curve)?
**A.** 0%

**Q.** What about the IC50 ([1]; read-out: Rel. IC50) of the same compound?
**A.** 785 nM

**Q.** What about the “Top (%)” value ([1]; top plateau of curve) of the same compound?
**A.** 101%

**Q.** And the “Rel. IC70” value [2]?
**A.** 2.043 µM

**Q.** And the “Test/Control (%)” value ([2]; 0.003 μM)?
**A.** 100%

**Q.** And the “Test/Control (%)” value ([2]; 0.03 μM)?
**A.** 100%

**Q.** What about the “Test/Control (%)” value ([2]; 0.3 μM) of the same compound?
**A.** 100%

**Q.** And the “Test/Control (%)” value ([2]; 3 μM)?
**A.** 3%

**Q.** What about the “Test/Control (%)” value ([2]; 30 μM) of the same compound?
**A.** 1%

**Q.** What about the “Abs. IC70” value ([2]; T/C=30%) of the same compound?
**A.** 2.055 µM

**Q.** What about the IC50 ([2]; T/C=50%, read-out: Abs. IC50) of the same compound?
**A.** 1850 nM

**Q.** And the “Bot. (%)” value ([2]; bottom plateau of curve)?
**A.** 1%

**Q.** And the IC50 ([2]; read-out: Rel. IC50)?
**A.** 1840 nM

**Q.** And the “Top (%)” value ([2]; top plateau of curve)?
**A.** 100%

**Q.** And the “Absolute IC70” value [3]?
**A.** 1.901 µM

**Q.** And the “Relative IC70” value [3]?
**A.** 1.868 µM

**Q.** And the T/C % ([3]; 0.03 μM)?
**A.** 106%

**Q.** What about the T/C % ([3]; 0.095 μM) of the same compound?
**A.** 107%

**Q.** And the T/C % ([3]; 0.3 μM)?
**A.** 113%

**Q.** And the T/C % ([3]; 0.95 μM)?
**A.** 2%

**Q.** What about the T/C % ([3]; 3.0 μM) of the same compound?
**A.** 1%

**Q.** What about the IC50 ([3]; read-out: Absolute IC50) of the same compound?
**A.** 1740 nM

**Q.** What about the IC50 ([3]; read-out: Relative IC50) of the same compound?
**A.** 1710 nM

**Q.** What about the “Absolute IC70” value [4] of the same compound?
**A.** 0.9938 µM

**Q.** And the “Relative IC70” value [4]?
**A.** 0.9869 µM

**Q.** What about the T/C % ([4]; 0.03 μM) of the same compound?
**A.** 99%

**Q.** And the T/C % ([4]; 0.095 μM)?
**A.** 102%

**Q.** What about the T/C % ([4]; 0.3 μM) of the same compound?
**A.** 102%

**Q.** And the T/C % ([4]; 0.95 μM)?
**A.** 1%

**Q.** And the T/C % ([4]; 3.0 μM)?
**A.** 4%

**Q.** And the IC50 ([4]; read-out: Absolute IC50)?
**A.** 940 nM

**Q.** And the IC50 ([4]; read-out: Relative IC50)?
**A.** 935 nM

**Q.** And the “Absolute IC70” value [5]?
**A.** 0.474 µM

**Q.** What about the “Relative IC70” value [5] of the same compound?
**A.** 0.467 µM

**Q.** What about the T/C % ([5]; 0.03 μM) of the same compound?
**A.** 96%

**Q.** What about the T/C % ([5]; 0.095 μM) of the same compound?
**A.** 96%

**Q.** What about the T/C % ([5]; 0.3 μM) of the same compound?
**A.** 72%

**Q.** And the T/C % ([5]; 0.95 μM)?
**A.** 5%

**Q.** What about the T/C % ([5]; 3.0 μM) of the same compound?
**A.** 3%

**Q.** What about the IC50 ([5]; read-out: Absolute IC50) of the same compound?
**A.** 383 nM

**Q.** And the IC50 ([5]; read-out: Relative IC50)?
**A.** 384 nM

**Q.** And the “Absolute IC70” value [6]?
**A.** 1.125 µM

**Q.** What about the “Relative IC70” value [6] of the same compound?
**A.** 0.891 µM

**Q.** And the T/C % ([6]; 0.03 μM)?
**A.** 98%

**Q.** And the T/C % ([6]; 0.095 μM)?
**A.** 99%

**Q.** And the T/C % ([6]; 0.3 μM)?
**A.** 98%

**Q.** And the T/C % ([6]; 0.95 μM)?
**A.** 40%

**Q.** And the T/C % ([6]; 3.0 μM)?
**A.** 22%

**Q.** And the IC50 ([6]; read-out: Absolute IC50)?
**A.** 844 nM

**Q.** What about the IC50 ([6]; read-out: Relative IC50) of the same compound?
**A.** 765 nM
